Results taken from the supplement of paper PMC10307832.

Key:
Assay in all cases: relative viability (nuclei count vs DMSO), 5 days (fraction); higher = more cells survive
AT9283 + Navitoclax = compound: O=C(Nc1c[nH]nc1-c1nc2ccc(CN3CCOCC3)cc2[nH]1)NC1CC1 [AT9283] + CC1(C)CCC(c2ccc(Cl)cc2)=C(CN2CCN(c3ccc(C(=O)NS(=O)(=O)c4ccc(N[C@H](CCN5CCOCC5)CSc5ccccc5)c(S(=O)(=O)C(F)(F)F)c4)cc3)CC2)C1 [Navitoclax] (partner 0.5 µM)
How it was run: (§1)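 Lung cancer cell lines were seeded in 1536-well plates and dosed by pin tool the next day, with either a single drug or a fixed anchor-drug dose combined with five library-drug doses (not always all listed) spaced in √10 steps. Five days later, one step fixed the cells and stained their nuclei (final 0.05% Triton X-100, 1% formaldehyde, 1 ug/ml Hoechst), and nuclei were counted on 4× images. Relative viability is the nuclei count in treated wells divided by the count in vehicle wells, and each value is the median of duplicate plates.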

Erlotinib + Alpelisib = compound: C#Cc1cccc(Nc2ncnc3cc(OCCOC)c(OCCOC)cc23)c1 [Erlotinib] + Cc1nc(NC(=O)N2CCC[C@H]2C(N)=O)sc1-c1ccnc(C(C)(C)C(F)(F)F)c1 [Alpelisib] (partner 2 µM)
How it was run: as §1

AT9283 + Palbociclib = compound: O=C(Nc1c[nH]nc1-c1nc2ccc(CN3CCOCC3)cc2[nH]1)NC1CC1 [AT9283] + CC(=O)c1c(C)c2cnc(Nc3ccc(N4CCNCC4)cn3)nc2n(C2CCCC2)c1=O [Palbociclib] (partner 0.5 µM)
How it was run: as §1

Erlotinib + Vorinostat = compound: C#Cc1cccc(Nc2ncnc3cc(OCCOC)c(OCCOC)cc23)c1 [Erlotinib] + O=C(CCCCCCC(=O)Nc1ccccc1)NO [Vorinostat] (partner 1 µM)
How it was run: as §1

AT9283 + Pemetrexed = compound: O=C(Nc1c[nH]nc1-c1nc2ccc(CN3CCOCC3)cc2[nH]1)NC1CC1 [AT9283] + Nc1nc2[nH]cc(CCc3ccc(C(=O)N[C@@H](CCC(=O)O)C(=O)O)cc3)c2c(=O)[nH]1 [Pemetrexed] (partner 0.2 µM)
How it was run: as §1

With NCI-H441 the relative viability (AT9283 + Navitoclax; first compound 0.003 µM) was 0.432, the relative viability (AT9283 + Navitoclax; first compound 0.03 µM) was 0.433 and the relative viability (AT9283 + Navitoclax; first compound 0.09487 µM) was 0.255. The relative viability (AT9283 + Navitoclax; first compound 0.3 µM) was 0.204, the relative viability (Erlotinib + Alpelisib; first compound 0.02 µM) was 0.688 and the relative viability (Erlotinib + Alpelisib; first compound 0.2 µM) was 0.655. The relative viability (Erlotinib + Alpelisib; first compound 0.6325 µM) was 0.743, the relative viability (Erlotinib + Alpelisib; first compound 2 µM) was 0.466 and the relative viability (AT9283 + Palbociclib; first compound 0.003 µM) was 0.247. For the same cell line, the relative viability (AT9283 + Palbociclib; first compound 0.03 µM) was 0.236, the relative viability (AT9283 + Palbociclib; first compound 0.09487 µM) was 0.205 and the relative viability (AT9283 + Palbociclib; first compound 0.3 µM) was 0.175. For the same cell line, the relative viability (Erlotinib + Vorinostat; first compound 0.02 µM) was 0.841, the relative viability (Erlotinib + Vorinostat; first compound 0.2 µM) was 0.725 and the relative viability (Erlotinib + Vorinostat; first compound 0.6325 µM) was 0.84. The relative viability (Erlotinib + Vorinostat; first compound 2 µM) was 0.745, the relative viability (AT9283 + Pemetrexed; first compound 0.003 µM) was 0.228 and the relative viability (AT9283 + Pemetrexed; first compound 0.03 µM) was 0.274. The relative viability (AT9283 + Pemetrexed; first compound 0.09487 µM) was 0.25 and the relative viability (AT9283 + Pemetrexed; first compound 0.3 µM) was 0.238.
